Experimental data published in ChEMBL document CHEMBL1201862, “PubChem BioAssay data set” (2004).
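Values below derive from 48-hour exposures of cells grown in 96-well plates, with endpoints linearly interpolated between the two concentrations bracketing the appropriate inhibition level. At the GI50, growth is halved.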 Activity calls are given as the source filed them. Cut-off read from the data, not from the text of the source: active = GI50 up to about 1.1 µM and inactive = higher.

Legend:
Assay in all cases: inhibition of tumour cell growth, NCI panel, 48 h
[1] = system: SK-MEL-5
[2] = system: HOP-92
[3] = system: OVCAR-4
[4] = system: HCC 2998
[5] = system: SK-MEL-2
[6] = system: HL-60
[7] = system: U-251
[8] = system: ACHN
[9] = system: UACC-257
[10] = system: K562
[11] = system: SF-295
[12] = system: IGROV-1
[13] = system: 786-0
[14] = system: HCT-15
[15] = system: SF-539
[16] = system: SNB-75
[17] = system: SK-MEL-28
[18] = system: HCT-116
[19] = system: PC-3
[20] = system: DU-145

| SMILES | GI50 [1] | GI50 [2] | GI50 [3] | GI50 [4] | GI50 [5] | GI50 [6] | GI50 [7] | GI50 [8] | GI50 [9] | GI50 [10] | GI50 [11] | GI50 [12] | GI50 [13] | GI50 [14] [µM] | GI50 [15] | GI50 [16] | GI50 [17] | GI50 [18] | GI50 [19] | GI50 [20] |
| --- | --- | --- | --- | --- | --- | --- | --- | --- | --- | --- | --- | --- | --- | --- | --- | --- | --- | --- | --- | --- |
| Cc1cc(Cl)ccc1NC(=O)CC/C(CC(=O)C(C)C)=N\NC(=O)C[n+]1ccccc1 | > 100 µM (inactive) | > 100 µM (inactive) | > 100 µM (inactive) | > 100 µM (inactive) | > 100 µM (inactive) | > 100 µM (inactive) | > 100 µM (inactive) | > 100 µM (inactive) | > 100 µM (inactive) | > 100 µM (inactive) | > 100 µM (inactive) | > 100 µM (inactive) | > 100 µM (inactive) | > 100 | > 100 µM (inactive) | > 100 µM (inactive) | > 100 µM (inactive) | > 100 µM (inactive) |  |  |
| Cn1c(NC(=O)NC23CC4CC(CC(C4)C2)C3)nc2ccccc21 | 91 µM (inactive) | 25.5 µM (inactive) | 4.22 µM (inactive) | > 100 µM (inactive) | 71.3 µM (inactive) | > 100 µM (inactive) | 48.8 µM (inactive) | 27.5 µM (inactive) | 94.2 µM (inactive) | > 100 µM (inactive) | 12.6 µM (inactive) | > 100 µM (inactive) | 17.1 µM (inactive) | > 100 | 81.1 µM (inactive) | 3.94 µM (inactive) | 96.4 µM (inactive) | 15.3 µM (inactive) |  |  |
| O=S(=O)(SCCCCSS(=O)(=O)c1ccc(Cl)cc1)c1ccc(Cl)cc1 | 16.7 µM (inactive) | 8.51 µM (inactive) | 15.1 µM (inactive) | 18.7 µM (inactive) | 14.9 µM (inactive) | 3.24 µM (inactive) | 8.36 µM (inactive) | 16.3 µM (inactive) | 16.6 µM (inactive) | 20 µM (inactive) | 3.92 µM (inactive) | 5.2 µM (inactive) | 9.68 µM (inactive) | 13.4 | 12.4 µM (inactive) | 11.4 µM (inactive) | 17.8 µM (inactive) | 11 µM (inactive) |  |  |
| O=c1[nH]nc(-c2ccccc2)c2[nH]c3c4ccccc4ccc3c12 | 0.587 µM (active) | 20.3 µM (inactive) | 1.76 µM (inactive) | 0.948 µM (active) | 7.62 µM (inactive) | 0.548 µM (active) | 0.885 µM (active) | 1.69 µM (inactive) | 5.82 µM (inactive) | 0.279 µM (active) | 0.461 µM (active) | 4.24 µM (inactive) | 2.1 µM (inactive) | 0.643 | 0.964 µM (active) | 3.93 µM (inactive) |  | 0.942 µM (active) | 1.28 µM (inactive) |  |
| O=C(NCc1cccnc1)C1COc2cc(-c3cc(=O)c4ccccc4o3)ccc2O1 (stereo not given) | 26.1 µM (inactive) | > 75.3 µM (inactive) | 55.3 µM (inactive) | > 100 µM (inactive) | 3.4 µM (inactive) | > 46.5 µM (inactive) | 5.93 µM (inactive) | 22.5 µM (inactive) | 4.94 µM (inactive) | > 80.2 µM (inactive) | 7.6 µM (inactive) | > 66.5 µM (inactive) | 7.19 µM (inactive) | 77.3 | 3.04 µM (inactive) | 3.49 µM (inactive) | 3.49 µM (inactive) | 21.7 µM (inactive) |  |  |
| CC(C)[Si](OC1=C(C(=O)N(C)c2ccccc2Cl)CCCCC1)(C(C)C)C(C)C | > 100 µM (inactive) | > 100 µM (inactive) | > 100 µM (inactive) |  |  |  | > 100 µM (inactive) | > 100 µM (inactive) | > 100 µM (inactive) |  | > 100 µM (inactive) | > 100 µM (inactive) | > 100 µM (inactive) | > 100 | > 100 µM (inactive) | > 100 µM (inactive) | > 100 µM (inactive) | > 100 µM (inactive) |  | > 100 µM (inactive) |
| CN1CCC2(CC1)SSC1(CCN(C)CC1)S2 | 60.5 µM (inactive) | > 100 µM (inactive) | > 100 µM (inactive) |  | > 100 µM (inactive) | > 100 µM (inactive) | > 100 µM (inactive) | > 100 µM (inactive) | > 100 µM (inactive) | > 100 µM (inactive) | > 100 µM (inactive) |  | > 100 µM (inactive) | > 100 | > 100 µM (inactive) | > 100 µM (inactive) | > 100 µM (inactive) | > 100 µM (inactive) | > 100 µM (inactive) |  |
| CN/C=C(/c1ccc(OC)cc1)C(O)c1ccc(OC)c(OC)c1 (stereo not given) | > 100 µM (inactive) | > 100 µM (inactive) | > 100 µM (inactive) | > 100 µM (inactive) | > 100 µM (inactive) | > 100 µM (inactive) | > 100 µM (inactive) | > 100 µM (inactive) | > 100 µM (inactive) | > 100 µM (inactive) | > 100 µM (inactive) | > 100 µM (inactive) | > 100 µM (inactive) | > 100 | > 100 µM (inactive) | 69.8 µM (inactive) | > 100 µM (inactive) | > 100 µM (inactive) |  |  |
